# Source: patent publication US20060069132A1, “Azolecarboxamide herbicides” (priority 2004, published 2006)
# Key:
# [1] = system: common (oilseed) sunflower; test: Test C pre-/postemergence herbicide test; type: in vivo, Helianthus annuus; settings: preemergence
# Summary of the method: (§1)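 Emerged plants at the 1- to 4-leaf stage (2–18 cm), or freshly planted seeds, received test chemicals in a non-phytotoxic solvent mixture with surfactant. Response was visually scored against controls after 12 to 14 days in the greenhouse, on a 0 (no effect) to 100 (complete control) scale.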
# [2] = system: rice; test: Test B pre-/postemergence herbicide test; type: in vivo, Oryza sativa; settings: 0 = no effect, 100 = complete control, preemergence
# Summary of the method: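 Seeds were planted and treated preemergence with compounds formulated in a non-phytotoxic solvent mixture containing surfactant, while plants at the 1- to 4-leaf stage (2 to 18 cm) received postemergence sprays. Flooded paddy plants were grown to the 2-leaf stage. After 13 to 15 days in a greenhouse, injury was visually rated 0–100 against untreated controls.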
# [3] = system: large crabgrass; test: Test C pre-/postemergence herbicide test; type: in vivo, Digitaria sanguinalis
# Summary of the method: as §1
# [4] = system: goosegrass; test: Test C pre-/postemergence herbicide test; type: in vivo, Eleusine indica
# Summary of the method: as §1
# [5] = system: velvetleaf; test: Test C pre-/postemergence herbicide test; type: in vivo, Abutilon theophrasti
# Summary of the method: as §1
# [6] = system: pigweed; test: Test C pre-/postemergence herbicide test; type: in vivo, Amaranthus retroflexus
# Summary of the method: as §1
# [7] = system: redroot pigweed; test: Test A pre-/postemergence herbicide test; type: in vivo, Amaranthus retroflexus; settings: for Plant response rating, Pigweed: Postemergence; for Pigweed plant response rating: Preemergence
# Summary of the method: (§2)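 Both application timings were run together: directed soil spray over freshly planted seeds in sandy loam, and runoff spray onto 2–10 cm seedlings. Evaluation after ~10 days in greenhouse used a 0–100 visual scale versus untreated controls.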
# [8] = system: large crabgrass; test: Test A pre-/postemergence herbicide test; type: in vivo, Digitaria sanguinalis; settings: for Plant response rating, Crabgrass, Large: Postemergence; for Crabgrass, Large plant response rating: Preemergence
# Summary of the method: as §2
# [9] = 62 g ai/ha, preemergence, scale 0 to 100
# [10] = 125 g ai/ha, scale 0 (no effect) to 100 (complete control), visual, 12 to 14 days, preemergence
# [11] = 250 g ai/ha, scale 0-100, preemergence
# [12] = 500 g ai/ha, scale 0 to 100 (0 no effect, 100 complete control), visual, 12 to 14 days, preemergence
# [13] = 250 g ai/ha, scale 0 to 100 (0 no effect, 100 complete control), visual, 12 to 14 days, preemergence
# [14] = Postemergence, 125 g ai/ha, scale 0 to 100, 0 no effect, 100 complete control
# [15] = Postemergence, 250 g ai/ha, scale 0 to 100, 0 no effect, 100 complete control
# [16] = postemergence, 62 g ai/ha, scale 0 to 100
# [17] = 500 g ai/ha, 0 to 100 scale, 0 no effect, 100 complete control
# [18] = 2000 g ai/ha, 0 to 100 scale, 0 no effect, 100 complete control
# [19] = 500 g ai/ha, visual rating, 0 to 100 scale (0 no effect, 100 complete control)
structure (smiles),measurement,setting,value
CCN1N=C(C(C)(C)C)CC1C(=O)Nc1cc(C(=O)N2CC=CC2)ccc1F (racemic) [Compound 310],"Plant response rating, Sunflower","[1]; 62 g ai/ha, scale 0 to 100",0
same,"Plant response rating, Sunflower","[1]; 250 g ai/ha, scale 0-100",0
same,"Plant response rating, Sunflower","[1]; 500 g ai/ha, scale 0 to 100 (0 no effect, 100 complete control), visual, 12 to 14 days",0
same,Rice plant response rating (0 to 100 scale),[2]; 125 g ai/ha,40
same,"Plant response rating, Rice","[2]; 500 g ai/ha, visual rating",80
same,"Plant response rating, Crabgrass, Large",[3]; [9],30
same,"Plant response rating, Crabgrass, Large",[3]; [10],70
same,"Plant response rating, Crabgrass, Large",[3]; [11],100
same,"Plant response rating, Crabgrass, Large",[3]; [12],100
same,"Plant response rating, Goosegrass",[4]; [9],70
same,"Plant response rating, Goosegrass",[4]; [10],80
same,"Plant response rating, Goosegrass",[4]; [11],95
same,"Plant response rating, Goosegrass",[4]; [12],95
same,"Plant response rating, Velvetleaf",[5]; [9],0
same,"Plant response rating, Velvetleaf",[5]; [11],10
same,"Plant response rating, Velvetleaf",[5]; [12],100
same,"Plant response rating, Pigweed",[6]; [9],100
same,"Plant response rating, Pigweed",[6]; [10],100
same,"Plant response rating, Pigweed",[6]; [11],100
same,"Plant response rating, Pigweed",[6]; [12],100
CCn1nc(C(C)(C)C)cc1C(=O)Nc1cccc(C(=O)NC2CC2)c1 [Compound 44],"Plant response rating (0 = no effect, 100 = complete control), Sunflower",[1]; 62 g ai/ha,0
same,"Plant response rating, Sunflower","[1]; 125 g ai/ha, scale 0 (no effect) to 100 (complete control), visual, 12 to 14 days",0
same,"Plant response rating, Sunflower","[1]; 250 g ai/ha, scale 0 to 100 (0 no effect, 100 complete control), visual, 12 to 14 days",0
same,"Plant response rating (0 = no effect, 100 = complete control), Crabgrass, Large","[3]; 62 g ai/ha, preemergence",0
same,"Plant response rating, Crabgrass, Large",[3]; [10],20
same,"Plant response rating, Crabgrass, Large",[3]; [13],20
same,"Plant response rating, Crabgrass, Large",[3]; [14],90
same,"Plant response rating, Crabgrass, Large",[3]; [15],90
same,"Plant response rating, Crabgrass, Large",[3]; [16],60
same,"Plant response rating, Pigweed",[7]; [17],100
same,"Plant response rating, Pigweed",[7]; [18],100
same,Pigweed plant response rating,[7]; [19],100
same,Pigweed plant response rating,[7]; [18],100
same,"Plant response rating (0 = no effect, 100 = complete control), Goosegrass","[4]; 62 g ai/ha, preemergence",10
same,"Plant response rating, Goosegrass",[4]; [10],30
same,"Plant response rating, Goosegrass",[4]; [13],50
same,"Plant response rating, Goosegrass",[4]; [14],40
same,"Plant response rating, Goosegrass",[4]; [15],50
same,"Plant response rating, Goosegrass",[4]; [16],40
same,"Plant response rating, Crabgrass, Large",[8]; [17],55
same,"Plant response rating, Crabgrass, Large",[8]; [18],80
same,"Crabgrass, Large plant response rating",[8]; [19],45
same,"Crabgrass, Large plant response rating",[8]; [18],90
same,"Plant response rating (0 = no effect, 100 = complete control), Velvetleaf","[5]; 62 g ai/ha, preemergence",70
same,"Plant response rating, Velvetleaf",[5]; [10],70
same,"Plant response rating, Velvetleaf",[5]; [13],70
same,"Plant response rating, Velvetleaf",[5]; [16],60
same,"Plant response rating (0 = no effect, 100 = complete control), Pigweed","[6]; 62 g ai/ha, preemergence",10
same,"Plant response rating, Pigweed",[6]; [10],70
same,"Plant response rating, Pigweed",[6]; [13],90
same,"Plant response rating, Pigweed",[6]; [15],100
same,"Plant response rating, Pigweed",[6]; [16],100
